What was measured:
Type in all cases: cell-based
OVISE cell line = test: Drug and growth-inhibitor assay (Cell Titer-Glo cell viability), OVISE; details: for effect on cell growth: concentration 0.1 g/ml to […], alone
Description: (§1) Cysplatin (CDDP, Randa, molecular weight, 300.5 Da) was purchased from Nippon Kayaku (Tokyo, Japan). Propargylglycine (PPG, molecular weight, 113.11 Da), a specific inhibitor of CTH, was purchased from Sigma-Aldrich. OVISE, OVTOKO, and OVCAR-3 were seeded into opaque-walled 96-well plates in a concentration of 1×10^4 cells/well on the day before adding the drugs. CDDP solution of various concentrations (0, 0.02, 0.1, 0.5, 2.5, and 12.5 µg/ml) was then added to the wells in duplicate. In the following, PPG dissolved in water ([…]) was added. 96 hours after addition of the drugs, cell viability was quantified using the Cell Titer-Glo Luminescent Cell Viability Assay (Promega, Madison, Wis.). Luminescence activity was measured with a GloMAx96 Microplate Luminometer (Promega).
(§2) The protein expression of CTH was examined in 9 ovarian cancer cell lines by western blot analysis. Among all the ovarian cell lines, CTH expression was only observed in OVISE and OVTOKO (FIG. 5E). […] There was a positive correlation between protein expression of CTH and IC50 of CDDP in ovarian cancer cell lines (FIG. 5 F-H). The IC50s of propargylglycine, a specific inhibitor of CTH, were also analyzed in these cell lines. Propargylglycine at a concentration ranging from […] to 10 µg/ml had no effect on cell growth of these cell lines. Thus, combination of CDDP and propargylglycine (FIG. 5 I-K) was also examined.

OVTOKO cell line = test: Drug and growth-inhibitor assay (Cell Titer-Glo cell viability), OVTOKO; details: for effect on cell growth: concentration 0.1 g/ml to […], alone
Description: as §1, §2

OVCAR3 cell line = test: Drug and growth-inhibitor assay (Cell Titer-Glo cell viability), OVCAR3; details: concentration 0.1 g/ml to […], alone
Description: as §1
The protein expression of CTH was examined in 9 ovarian cancer cell lines by western blot analysis. Among all the ovarian cell lines, CTH expression was only observed in OVISE and OVTOKO (FIG. 5E). […] There was a positive correlation between protein expression of CTH and IC50 of CDDP in ovarian cancer cell lines (FIG. 5 F-H). The IC50s of propargylglycine, a specific inhibitor of CTH, were also analyzed in these cell lines. Propargylglycine at a concentration ranging from […] to 10 µg/ml had no effect on cell growth of these cell lines. […]

[1] = […] propargylglycine in culture medium, versus medium without PPG

Compound | change of IC50 of CDDP in combination with propargylglycine (OVISE cell line; [1]) | change of IC50 of CDDP in combination with propargylglycine (OVTOKO cell line; [1]) | effect on cell growth (OVISE cell line) | effect on cell growth (OVISE cell line; listed as PPG) | effect on cell growth (OVTOKO cell line) | effect on cell growth (OVTOKO cell line; listed as PPG) | effect on cell growth (OVCAR3 cell line) | effect on cell growth (OVCAR3 cell line; listed as PPG)
[NH2][Pt]([NH2])([Cl])[Cl] [CDDP, Cysplatin] | significantly decreased | significantly decreased | – | – | – | – | – | –
C#CCC(N)C(=O)O (centres unmarked) [Propargylglycine] | – | – | no effect | did not affect cell growth | no effect | did not affect cell growth | no effect | did not affect cell growth

From US20120058204A1, “USE OF OVER EXPRESSION OF CYSTATHIONINE GAMMA LYASE AS A PROGNOSTIC, DIAGNOSTIC AND THERAPEUTIC TARGET FOR CANCER” (NATIONAL CANCER CENTER RESEARCH INSTITUTE, priority 2010, published 2012)
